Reference: patent US3978055A, “Arylamino pyrimidinic derivatives” (priority 1973, dated 1976)
Read-outs that look alike come from different tables or passages of the source.

How the values were obtained:
volume of urine emitted = test: Augmentation of urinary elimination (diuretic properties); type: in vivo; details: po; mouse, 25mg/kg/p.o., 6 hours; read-out: Percentage augmentation of urinary elimination
Procedure: The derivatives of formula I, administered by oral means to the mouse, simultaneously with a volume of 1ml of an isotonic solution of sodium chloride per 25g of the corporeal weight of the mouse, are capable of provoking an augmentation of the volume of urine emitted by reference to control animals, the volume being measured for 6 hours following administration.
The following Table VII indicates, by way of example the percentage augmentation of urinary elimination resulting from the administration of 25mg/kg/p.o. of different derivatives of formula I.

[1] = system: local oedema caused by sub-plantar injection of carraghenine; test: Sub-plantar oedema caused by carraghenine (antiinflammatory); type: in vivo, rat; details: for inhibition in vivo at 100 mg/kg: 100 mg/kg/PO, read-out: Percentage reduction of subplantar oedema; for ED50: po
Description: These properties are shown by a diminution of the local oedema caused by the sub-plantar injection of a phlogogenic agent, such as carraghenine, in the rat following the oral administration of derivatives of formula I.

[2] = Lethal doses / percentage mortality; type: in vivo; details: in vivo, mouse; for LD50: po, Table IX, read-out: DE 50 (second column; DL 50) (converted)
Description: (§1) As a result of a comparison between the pharmacologically active doses mentioned above, and the lethal doses listed in the following table XIV, the difference between the doses is sufficiently great to permit the utilisation of the derivatives of formula I in therapeutics.

[3] = system: isolated heart of the guinea-pig; test: Force of contractions on isolated heart (positive inotrope action)
Procedure: Additionally, the derivative of Code No. 730 712 added to the conserving medium in a concentration of 1 μg/ml, permit an augmentation of 140% in the force of contractions on the isolated heart of the guinea- pig.

Shay ulcers = test: Gastric ulcers provoked by tying of the pylorus (Shay ulcers); type: in vivo; details: intraduodenal; rat, 50mg/kg/i.d.; read-out: Percentage reduction of shay ulcers
Procedure: The derivatives of formula I, administered by oral means, reduce the extent of gastric ulcers provoked in a rat by tying of the pylorus (Shay ulcers)
Table IV indicated, by way of example, the results obtained by the administration of 50mg/kg/i.d. of different derivatives of formula I.

[4] = system: isolated heart of guinea-pig; test: Augmentation of flow of coronary vessels of isolated heart (vasodilatatory); details: Cavia porcellus, read-out: Percentage augmentation of flow of isolated heart of guinea-pig
Procedure: The derivatives of formula I are capable of augmenting the flow of the coronary vessels of this isolated heart of a guinea - pig, when said derivatives are added in the perfusion liquid of said organ.
The percentage augmentation of the flow of the isolated heart of the guinea - pig by adding different derivatives of formula I to the perfusion liquid are given by way of example in the following Table V.

[5] = system: bronchoconstriction provoked by acetylcholine; test: Bronchoconstriction provoked by intravenous acetylcholine, Konzett method; type: in vivo; details: guinea-pig, intraperitoneal injection of 100mg/kg
Procedure: Injected by intraduodenal means, the derivatives of formula I are capable of opposing the bronchoconstriction provoked in the guinea - pig by the intraveinous injection of acetylcholine and evaluated by the Konzett method.
By way of example, the following Table VI lists the percentage inhibition of the bronchoconstriction following the intraperitoneal injection of 100mg/kg of different derivatives of formula I.

[6] = system: crying and jumping in the Randall and Selitto test; test: Randall and Selitto test; type: in vivo, rat; details: for ED50: po, read-out: 105 DE (DE 50)
[7] = system: painful stretchings caused by bradykinine; test: Analgesic test with bradykinine (painful stretchings); type: in vivo, mouse; details: for ED50: Mus musculus, po, read-out: 105 DE (DE 50)
[8] = system: pain threshold in the dentary pulp stimulation test; test: Dentary pulp stimulation test; type: in vivo; details: rabbit
Description: Moreover, the derivatives of formula I, administered rectally to a rabbit, enabled the pain threshold to be raised in the dentary pulp stimulation test.
As an example, the following table XI gives the results of a comparative study between the activity of derivative code number 730 229 and that of glaphenine, the activities being estimated by the dentary stimulation test

[9] = system: painful stretchings caused by phenylbenzoquinone; test: Analgesic test with phenylbenzoquinone (painful stretchings); type: in vivo; details: Mus musculus, po; for ED50: read-out: 105 DE (DE 50); for inhibition in vivo at 100 mg/kg: read-out: Percentage of diminution of the number of painful stretchings
[10] = system: painful stretchings caused by acetic acid; test: Analgesic test with acetic acid (painful stretchings); type: in vivo, mouse; details: po, read-out: 105 DE (DE 50)
mouse = test: Lethal doses / percentage mortality; type: in vivo; details: Table IX
Description: as §1

[11] = system: analgesic action of dextromoramide in the Eddy test; test: Eddy test (potentialisation of dextromoramide analgesia); type: in vivo, mouse; details: for ED50: Mus musculus, po, read-out: 105 DE (DE 50)
[12] = system: number of explorations in the escape enclosure; test: Number of explorations in the escape enclosure (sedative properties); type: in vivo, mouse; details: po
[13] = system: arterial pressure of an anaesthetised rat; test: Increase in arterial pressure of anaesthetised rat (hypertensive properties); type: in vivo; details: 2 mg/kg/i.v.
Procedure: Administered by intraveinous means, the derivatives of formula I provoke an increase in the arterial pressure of an anaosthetised rat.
By way of example, the results obtained by the administration of 2 mg/kg/i.v. of different derivatives of formula I are listed in the following Table III.

[14] = system: number of explorations in the actimeter; test: Number of explorations in an actimeter having luminous beams and photoelectric cells (sedative properties); type: in vivo; details: mouse, oral, read-out: DE 50, number of explorations in the actimeter
Procedure: The derivatives of formula I, administered by oral means to the mouse, reduce the number of explorations in the escape enclosure and in an actimeter having luminous beams and photoelectric cells.
Also, the DE 50 of the derivative of code No. 730 229 is 82mg/kg/p.o. for the test on the number of explorations in the escape enclosure and 120mg/kg/p.o. for the test on the number of explorations in the actimeter.

[15] = system: arterial pressure of anaesthetised rat; test: Lowering of arterial pressure of anaesthetised rat (hypotensive properties); type: in vivo; details: 2 mg/kg/i.v.
Description: Administered by intraveinous means to an anaesthetised rat, the derivatives of formula I provoke a lowering of the arterial pressure.
By way of example, the following Table VIII mentions the results obtained by administration of different derivatives of formula I.

[16] = antiinflammatory activity, rat, read-out: DE 50 (the source's name)

SMILES | change in vivo at 25 mg/kg (volume of urine emitted) | mortality ([2]; 2000 mg/kg, 2 000 mg/kg/PO) | inhibition in vivo at 50 mg/kg (Shay ulcers) | Percentage inhibition of bronchoconstriction [5] | ED50 [7] | ED50 [9] | DE 50 (second column; DL 50) (mouse) | LD50 [2] | ED50 [11] | other results
Cc1cc(Nc2ccccc2C(N)=O)nc(-c2cccc(C(F)(F)F)c2)n1 [72 419] | 80% | 0% | – | – | – | – | – | – | – | inhibition in vivo at 100 mg/kg ([1]; rat): 50%; positive inotrope action ([3]; 1 μg/ml): positive inotrope action
Cc1cc(Nc2ccc(C(=O)N3CCCC3)cc2)nc(-c2ccc(Cl)cc2)n1 [72 255] | – | 0% | 35% | 50% | – | – | – | – | – | activation at 1 µg/mL ([4]; 1 μg/ml): 45%; inhibition in vivo at 100 mg/kg ([1]; rat): 60%
Cc1cc(Nc2ccc(C(N)=O)cc2)nc(-c2ccc(Cl)cc2)n1 [72 311] | – | 0% | 40% | 80% | – | – | – | – | – | inhibition in vivo at 100 mg/kg ([1]; rat): 50%
O=C(OCC(O)CO)c1ccccc1Nc1ccnc2cc(Cl)ccc12 (centres unmarked) [glaphenine, N-(7-chloro-4-quinolyl) anthranilic acid 2,3-dihydroxypropylester] | – | – | – | – | 48 mg/kg | 60 mg/kg | 1 900 mg/kg/PO | 1900 mg/kg | – | ED50 ([6]; Randall and Selitto test, rat): 65 mg/kg; Duration of action ([8]; 50 mg/kg rectally): 1 h; Number of rabbits whose pain threshold is increased by 0,5 V ([8]; 50 mg/kg rectally): 4/10; Duration of action ([8]; 100 mg/kg rectally): 1,5 hours; Number of rabbits whose pain threshold is increased by 0,5 V ([8]; 100 mg/kg rectally): 6/10; Peak action ([8]; 100 mg/kg rectally): 45 mn; Duration of action ([8]; 200 mg/kg rectally): 2 h; Number of rabbits whose pain threshold is increased by 0,5 V ([8]; 200 mg/kg rectally): 8/10; ED50 ([10]; test with acetic acid, mouse): 80 mg/kg; ED50 [1, 16]: 9 mg/kg
Cc1c(N(C)C)c(=O)n(-c2ccccc2)n1C [amidopyrine, 4-dimethylamino-2,3-dimethyl-1 phenyl-3-pyrazolin-5-one, reference compound] | – | – | – | – | 48 mg/kg | 45 mg/kg | 1 050 mg/kg/PO | 1050 mg/kg | 35 mg/kg | DE 50 / DL 50 ([6]; Randall and Selitto test): 1.10^-1; ED50 ([6]; Randall and Selitto test, rat): 110 mg/kg; ED50 ([10]; test with acetic acid, mouse): 80 mg/kg; ED50 [1, 16]: 140 mg/kg
CC(=O)Oc1ccccc1C(=O)O [acetylsalicylic acid, reference compound] | – | – | – | – | 180 mg/kg | 72 mg/kg | – | 700 mg/kg | > 200 mg/kg | ED50 ([6]; Rattus norvegicus): 110 mg/kg; ED50 ([10]; Mus musculus): 115 mg/kg; effect in Eddy test (40 % with 200) ([11]; 200 mg/kg/PO): 40%; ED50 ([1]; Rattus norvegicus, read-out: DE 50): 40 mg/kg
Cc1cc(Nc2ccc(OCCN3CCCC3)cc2)nc(-c2ccccc2)n1 [730 218] | – | – | – | – | – | 37 mg/kg | 1 500 mg/kg/PO | 1500 mg/kg | 50 mg/kg | Percentage of diminution of the number of painful stretchings ([7]; test with bradykinine, 100 mg/kg/PO): 40%; mortality ([2]; 1 2500 mg/kg/PO): ~50%; positive inotrope action ([3]; 0.5 μg/ml): positive inotrope action
Cc1cc(Nc2ccc(C(N)=O)cc2)nc(-c2ccc3c(c2)OCO3)n1 [730 025] | 140% | 0% | 35% | 50% | – | – | – | – | – | –
Cc1cc(Nc2ccc(OCCN(C)C)cc2)nc(-c2ccc(Cl)cc2)n1 [730 225] | – | ~20% | 53% | – | – | 42 mg/kg | – | > 2000 mg/kg | 80 mg/kg | Percentage of diminution of the number of painful stretchings ([6]; Randall and Selitto test, 100 mg/kg/PO): 50%
Cc1cc(Nc2ccccc2C(=O)OCC(O)CO)nc(-c2cccc(C(F)(F)F)c2)n1 (stereo not drawn) [72 502, 2 - (3' - trifluoromethylphenyl)-4-[ortho (β, γ-dihydroxy propoxycarbonyl)phenylamino] -6-methyl pyrimidine] | – | 0% | 35% | 50% | – | – | – | – | – | –
Cc1cc(Nc2ccc(C(=O)N3CCCCC3)cc2)nc(-c2ccc(Cl)cc2)n1 [72 276] | – | 0% | 40% | 50% | – | – | – | – | – | –
Cc1cc(Nc2ccccc2C(=O)OCC(O)CO)nc(-c2cccc(F)c2)n1 (centres unmarked) [72 826] | 80% | 0% | – | 100% | – | – | – | – | – | inhibition in vivo at 100 mg/kg ([1]; rat): 60%
Cc1cc(Nc2ccc(OCCN3CCOCC3)cc2)nc(-c2cccc(C(F)(F)F)c2)n1 [730 712] | 90% | 0% | – | – | – | – | – | – | – | inhibition in vivo at 100 mg/kg ([12]; mouse, escape enclosure, 100mg/kg/p.o., read-out: Percentage diminution of number of explorations): 32%; Percentage augmentation of arterial pressure [13]: 23%; inhibition in vivo at 100 mg/kg [9]: 60%; activation at 1 µg/mL ([3]; Cavia porcellus, 1 μg/ml, read-out: augmentation in the force of contractions): 140%
Cc1cc(Nc2ccc(OCCN(C)C)cc2)nc(-c2cccc(Cl)c2)n1 [730 262] | – | – | – | – | 100 mg/kg | 52 mg/kg | 2 500 mg/kg/PO | 2500 mg/kg | 60 mg/kg | mortality ([2]; 2 2500 mg/kg/PO): ~50%
Cc1cc(Nc2ccc(OCCN3CCOCC3)cc2)nc(-c2ccccc2)n1 [730 229] | 129% | – | – | – | 45 mg/kg | 10 mg/kg | 2 800 mg/kg/PO | 2800 mg/kg | 23 mg/kg | ED50 ([12]; Mus musculus, read-out: DE 50, number of explorations in the escape enclosure): 82 mg/kg; ED50 [14]: 120 mg/kg; ED50 ([6]; Randall and Selitto test, rat): 45 mg/kg; Duration of action ([8]; 50 mg/kg rectally): 2 h; Number of rabbits whose pain threshold is increased by 0,5 V ([8]; 50 mg/kg rectally): 7/10; Peak action ([8]; 50 mg/kg rectally): 1 h; ED50 ([10]; test with acetic acid, mouse): 70 mg/kg; antiinflammatory activity compared with reference compounds ([1]; comparison of Table XIII): clearly superior to that of amidopyrine and acetylsalicylic acid, and hardly inferior to that of glaphenine; ED50 [1, 16]: 22 mg/kg; mortality ([2]; 2 800 mg/kg/PO): ~50%
Cc1cc(Nc2ccc(OCCN(C)C)cc2)nc(-c2cccc(C(F)(F)F)c2)n1 [730 241] | – | 0% | – | – | – | – | – | – | – | activation at 0.5 µg/mL ([4]; 0.5 μg/ml): 77%; inhibition in vivo at 100 mg/kg [9]: 67%; Percentage reduction of arterial pressure of anaesthetised rat [15]: 24%; Duration of effect ([15]; hypotensive effect): 30 mn
